Measurements published in ChEMBL document CHEMBL1909046, “DrugMatrix in vitro pharmacology data”.

Key:
[1] = target: Mitogen-activated protein kinase 14 (Homo sapiens, UniProt Q16539); design: species or system Escherichia coli;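 note: inhibition of p38alpha enzyme activity in a biochemical kinase assay, with myelin basic protein serving as substrate; in other assays of this panel Not Active means under 50% inhibition at 10 µM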
Carbonic anhydrase 2 = Carbonic anhydrase 2 (Homo sapiens, UniProt P00918); assay: DRUGMATRIX: Carbonic Anhydrase II enzyme inhibition (substrate: 4-Nitrophenyl acetate (4-NPA)); format: tissue-based, Erythrocyte; conditions: erythrocyte; Not Active = under 50% inhibition at 10 µM
[2] = DRUGMATRIX: Sigma2 radioligand binding (ligand: [3H] Ifenprodil); format: cell membranes, Rattus norvegicus, Wistar, Brain, Membrane; conditions: Not Active = under 50% inhibition at 10 µM
Cannabinoid receptor 1 = Cannabinoid receptor 1 (Homo sapiens, UniProt P21554); format: cell membranes, Membrane; conditions: chem-1; note: in other assays of this panel Not Active means under 50% inhibition at 10 µM
Acetylcholinesterase = Acetylcholinesterase (Homo sapiens, UniProt P22303); assay: DRUGMATRIX: Acetylcholinesterase enzyme inhibition (substrate: acetylthiocholine); format: cell-based, HEK293; conditions: hek293; Not Active = under 50% inhibition at 10 µM
[3] = target: Tyrosine-protein kinase Fyn (Homo sapiens, UniProt P06241); assay: biochemical; format: cell-based, Insect cells; conditions: insect cells;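 note: enzymatic inhibition of Fyn kinase activity measured with Poly(Glu:Tyr) as the phosphorylation substrate; in other assays of this panel Not Active means under 50% inhibition at 10 µM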
Cytochrome P450 2C9 = Cytochrome P450 2C9 (Homo sapiens, UniProt P11712); conditions: bti-tn-5b1-4; note: in other assays of this panel Not Active means under 50% inhibition at 10 µM
[4] = target: T1, Alpha-1D adrenergic receptor (Homo sapiens, UniProt P25100); format: cell membranes, HEK293, Membrane; conditions: hek293; note: in other assays of this panel Not Active means under 50% inhibition at 10 µM
T1 sequence (P25100 whole entry): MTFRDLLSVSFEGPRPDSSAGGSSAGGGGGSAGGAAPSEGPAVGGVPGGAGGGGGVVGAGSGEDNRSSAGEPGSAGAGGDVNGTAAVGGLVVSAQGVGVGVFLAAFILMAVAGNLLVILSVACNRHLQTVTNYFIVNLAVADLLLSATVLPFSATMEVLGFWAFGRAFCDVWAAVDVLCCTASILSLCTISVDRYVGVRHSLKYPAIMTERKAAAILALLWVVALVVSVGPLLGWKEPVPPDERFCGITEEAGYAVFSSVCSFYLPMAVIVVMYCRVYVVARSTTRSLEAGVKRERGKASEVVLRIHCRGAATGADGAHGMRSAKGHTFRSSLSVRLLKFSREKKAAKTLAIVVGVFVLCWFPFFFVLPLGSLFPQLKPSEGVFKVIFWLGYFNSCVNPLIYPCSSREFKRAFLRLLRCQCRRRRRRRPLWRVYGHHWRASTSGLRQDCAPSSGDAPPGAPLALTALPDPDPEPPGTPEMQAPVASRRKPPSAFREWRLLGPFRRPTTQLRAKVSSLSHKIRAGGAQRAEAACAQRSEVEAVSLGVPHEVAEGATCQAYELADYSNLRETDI

Leukotriene C4 synthase = target: T2, Leukotriene C4 synthase (Cavia porcellus, UniProt A6XA80); assay: biochemical; format: tissue-based, Lung
T2 sequence (A6XA80 whole entry): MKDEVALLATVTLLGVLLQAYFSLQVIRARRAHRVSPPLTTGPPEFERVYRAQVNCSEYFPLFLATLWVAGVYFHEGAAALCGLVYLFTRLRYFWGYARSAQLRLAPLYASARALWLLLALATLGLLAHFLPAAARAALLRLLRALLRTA

Adenosine receptor A3 = target: T3, Adenosine receptor A3 (Homo sapiens, UniProt P0DMS8); format: cell membranes, CHO-K1, Membrane; conditions: cho-k1
T3 sequence (P0DMS8 whole entry): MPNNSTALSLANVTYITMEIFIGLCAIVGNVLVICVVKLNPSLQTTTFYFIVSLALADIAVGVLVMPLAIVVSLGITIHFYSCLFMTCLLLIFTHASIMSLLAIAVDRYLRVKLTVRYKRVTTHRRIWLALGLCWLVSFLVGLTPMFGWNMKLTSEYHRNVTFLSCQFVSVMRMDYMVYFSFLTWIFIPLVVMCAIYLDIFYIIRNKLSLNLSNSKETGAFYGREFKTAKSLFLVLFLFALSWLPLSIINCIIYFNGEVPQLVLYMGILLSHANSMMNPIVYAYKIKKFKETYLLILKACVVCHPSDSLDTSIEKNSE

[5] = DRUGMATRIX: GABAA, Muscimol, Central radioligand binding (ligand: [3H] Muscimol); format: cell membranes, Rattus norvegicus, Wistar, Brain, Membrane; conditions: Not Active = under 50% inhibition at 10 µM
Substance-K receptor = target: T4, Substance-K receptor (Homo sapiens, UniProt P21452); format: cell membranes, CHO, Membrane; conditions: cho; note: in other assays of this panel Not Active means under 50% inhibition at 10 µM
T4 sequence (P21452 whole entry): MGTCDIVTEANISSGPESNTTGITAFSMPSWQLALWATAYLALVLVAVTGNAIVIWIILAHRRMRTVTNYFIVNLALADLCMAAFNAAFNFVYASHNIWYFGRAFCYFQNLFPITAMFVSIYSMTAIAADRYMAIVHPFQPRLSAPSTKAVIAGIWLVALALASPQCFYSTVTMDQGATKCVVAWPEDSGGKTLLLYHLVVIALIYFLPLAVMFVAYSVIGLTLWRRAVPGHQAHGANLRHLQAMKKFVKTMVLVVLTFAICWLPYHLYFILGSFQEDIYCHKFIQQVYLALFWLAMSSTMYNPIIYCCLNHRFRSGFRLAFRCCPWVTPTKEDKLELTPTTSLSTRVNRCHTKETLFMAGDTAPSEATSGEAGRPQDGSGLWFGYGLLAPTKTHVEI

Cytochrome P450 2A6 = target: T5, Cytochrome P450 2A6 (Homo sapiens, UniProt P11509); conditions: bti-tn-5b1-4; note: in other assays of this panel Not Active means under 50% inhibition at 10 µM
T5 sequence (P11509 whole entry): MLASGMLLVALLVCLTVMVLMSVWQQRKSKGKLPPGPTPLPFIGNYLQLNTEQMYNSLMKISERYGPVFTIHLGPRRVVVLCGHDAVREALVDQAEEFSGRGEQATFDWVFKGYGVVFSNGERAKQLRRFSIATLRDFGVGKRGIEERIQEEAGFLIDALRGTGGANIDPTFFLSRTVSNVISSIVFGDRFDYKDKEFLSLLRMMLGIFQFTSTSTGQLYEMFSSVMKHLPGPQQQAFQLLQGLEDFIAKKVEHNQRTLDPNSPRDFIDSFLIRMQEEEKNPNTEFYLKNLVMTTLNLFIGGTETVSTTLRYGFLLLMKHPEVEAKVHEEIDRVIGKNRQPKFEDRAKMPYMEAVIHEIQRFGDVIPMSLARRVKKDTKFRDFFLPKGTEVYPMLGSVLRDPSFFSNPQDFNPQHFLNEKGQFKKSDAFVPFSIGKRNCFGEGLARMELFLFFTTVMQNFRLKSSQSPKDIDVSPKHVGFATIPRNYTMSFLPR

Mitogen-activated protein kinase 14, sequence (Q16539 whole entry): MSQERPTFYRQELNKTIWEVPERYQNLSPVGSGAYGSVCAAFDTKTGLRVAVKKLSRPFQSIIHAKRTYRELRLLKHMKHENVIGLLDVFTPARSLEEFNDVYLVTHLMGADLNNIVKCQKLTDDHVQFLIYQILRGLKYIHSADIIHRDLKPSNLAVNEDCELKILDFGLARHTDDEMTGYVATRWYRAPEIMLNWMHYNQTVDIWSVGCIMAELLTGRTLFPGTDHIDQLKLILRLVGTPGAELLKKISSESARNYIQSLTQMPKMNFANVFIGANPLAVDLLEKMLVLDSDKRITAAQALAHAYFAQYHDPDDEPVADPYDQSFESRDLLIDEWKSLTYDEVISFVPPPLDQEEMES
Cytochrome P450 2C9, sequence (P11712 whole entry): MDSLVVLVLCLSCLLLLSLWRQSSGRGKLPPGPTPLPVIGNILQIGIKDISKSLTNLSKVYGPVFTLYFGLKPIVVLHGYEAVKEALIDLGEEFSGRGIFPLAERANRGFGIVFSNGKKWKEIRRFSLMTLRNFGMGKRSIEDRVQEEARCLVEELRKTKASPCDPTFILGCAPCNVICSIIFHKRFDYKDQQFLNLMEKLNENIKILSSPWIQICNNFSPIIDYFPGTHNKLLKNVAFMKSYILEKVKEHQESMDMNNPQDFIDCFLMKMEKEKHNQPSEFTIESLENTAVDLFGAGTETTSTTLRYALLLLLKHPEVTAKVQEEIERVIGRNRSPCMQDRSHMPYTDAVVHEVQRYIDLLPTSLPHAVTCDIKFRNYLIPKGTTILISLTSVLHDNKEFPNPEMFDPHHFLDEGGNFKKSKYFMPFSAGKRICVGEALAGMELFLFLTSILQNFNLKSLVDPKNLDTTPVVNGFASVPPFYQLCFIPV
Cannabinoid receptor 1, sequence (P21554 whole entry): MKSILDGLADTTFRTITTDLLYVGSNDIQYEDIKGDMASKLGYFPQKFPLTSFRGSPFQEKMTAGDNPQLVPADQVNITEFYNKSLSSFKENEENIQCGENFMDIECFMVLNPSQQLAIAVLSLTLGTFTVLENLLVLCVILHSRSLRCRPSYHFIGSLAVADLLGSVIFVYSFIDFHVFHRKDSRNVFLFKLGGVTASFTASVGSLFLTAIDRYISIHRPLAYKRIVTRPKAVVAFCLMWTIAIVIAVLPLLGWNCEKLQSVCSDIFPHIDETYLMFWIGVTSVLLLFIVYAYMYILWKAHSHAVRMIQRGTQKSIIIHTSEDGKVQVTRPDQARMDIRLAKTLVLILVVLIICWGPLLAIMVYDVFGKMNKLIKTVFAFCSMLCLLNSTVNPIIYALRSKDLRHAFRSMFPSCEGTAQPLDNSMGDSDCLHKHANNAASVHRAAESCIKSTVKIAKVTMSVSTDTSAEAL
Acetylcholinesterase, sequence (P22303 whole entry): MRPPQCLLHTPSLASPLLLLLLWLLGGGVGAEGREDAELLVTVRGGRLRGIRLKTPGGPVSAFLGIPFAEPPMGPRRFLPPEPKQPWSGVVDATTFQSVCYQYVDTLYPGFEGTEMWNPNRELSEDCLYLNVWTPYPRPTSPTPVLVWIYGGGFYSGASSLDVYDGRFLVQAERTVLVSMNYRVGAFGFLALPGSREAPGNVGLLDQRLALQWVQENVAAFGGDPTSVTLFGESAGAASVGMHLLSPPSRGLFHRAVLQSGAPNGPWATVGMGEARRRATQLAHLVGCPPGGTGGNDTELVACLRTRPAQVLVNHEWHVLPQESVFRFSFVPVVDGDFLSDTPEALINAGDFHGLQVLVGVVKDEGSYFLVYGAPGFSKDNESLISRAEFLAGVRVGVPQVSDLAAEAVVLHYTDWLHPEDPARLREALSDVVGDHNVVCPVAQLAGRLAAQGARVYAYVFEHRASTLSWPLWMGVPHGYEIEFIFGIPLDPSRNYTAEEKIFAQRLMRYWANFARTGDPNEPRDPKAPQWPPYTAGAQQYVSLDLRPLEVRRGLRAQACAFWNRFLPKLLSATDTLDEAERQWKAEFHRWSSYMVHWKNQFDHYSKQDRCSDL
Tyrosine-protein kinase Fyn, sequence (P06241 whole entry): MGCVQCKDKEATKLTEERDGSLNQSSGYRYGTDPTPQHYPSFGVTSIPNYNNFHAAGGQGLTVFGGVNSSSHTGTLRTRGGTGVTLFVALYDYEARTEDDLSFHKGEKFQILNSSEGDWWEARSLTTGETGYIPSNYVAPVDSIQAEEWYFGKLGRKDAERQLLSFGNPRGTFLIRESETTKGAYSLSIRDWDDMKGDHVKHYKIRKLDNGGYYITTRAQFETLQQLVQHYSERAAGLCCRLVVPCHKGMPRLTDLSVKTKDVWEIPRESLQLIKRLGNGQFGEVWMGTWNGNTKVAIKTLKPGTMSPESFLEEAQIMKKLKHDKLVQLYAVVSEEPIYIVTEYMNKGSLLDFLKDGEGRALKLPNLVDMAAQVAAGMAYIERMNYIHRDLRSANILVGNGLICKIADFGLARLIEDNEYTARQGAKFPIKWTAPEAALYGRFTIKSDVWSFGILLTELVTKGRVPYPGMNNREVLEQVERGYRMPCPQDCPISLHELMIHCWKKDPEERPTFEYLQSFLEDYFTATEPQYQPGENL

C=C1[C@@H]2CCC3[C@@](CC[C@@H]4[C@H](C(=O)O)C[C@@H](O[C@@H]5O[C@H](CO)[C@@H](OS(=O)(=O)[O-])[C@H](OS(=O)(=O)[O-])[C@H]5OC(=O)CC(C)C)C[C@@]34C)(C2)[C@@H]1O.[K+].[K+] (some centres not stated) [ATRACTYLOSIDE]
Not Active: IC50 [1] | IC50 (Carbonic anhydrase 2) | IC50 [2] | Ki [2] | IC50 (Cannabinoid receptor 1) | IC50 (Acetylcholinesterase) | IC50 [3] | IC50 (Cytochrome P450 2C9) | Ki (Cytochrome P450 2C9) | IC50 [4] | IC50 (Leukotriene C4 synthase) | IC50 (Adenosine receptor A3) | IC50 [5] | Ki [5] | IC50 (Substance-K receptor) | IC50 (Cytochrome P450 2A6) | Ki (Cytochrome P450 2A6)

Cn1cnc([N+](=O)[O-])c1Sc1ncnc2nc[nH]c12 [AZATHIOPRINE]
Not Active: IC50 [1] | IC50 (Carbonic anhydrase 2) | IC50 [2] | Ki [2] | IC50 (Cannabinoid receptor 1) | IC50 (Acetylcholinesterase) | IC50 [3] | IC50 (Cytochrome P450 2C9) | Ki (Cytochrome P450 2C9) | IC50 [4] | IC50 (Leukotriene C4 synthase) | IC50 (Adenosine receptor A3) | IC50 [5] | Ki [5] | IC50 (Substance-K receptor) | IC50 (Cytochrome P450 2A6) | Ki (Cytochrome P450 2A6)

CC1(C)S[C@@H]2[C@H](NC(=O)[C@H](NC(=O)N3CCNC3=O)c3ccccc3)C(=O)N2[C@H]1C(=O)O [AZLOCILLIN]
Not Active: IC50 [1] | IC50 (Carbonic anhydrase 2) | IC50 [2] | Ki [2] | IC50 (Cannabinoid receptor 1) | IC50 (Acetylcholinesterase) | IC50 [3] | IC50 (Cytochrome P450 2C9) | Ki (Cytochrome P450 2C9) | IC50 [4] | IC50 (Leukotriene C4 synthase) | IC50 (Adenosine receptor A3) | IC50 [5] | Ki [5] | IC50 (Substance-K receptor) | IC50 (Cytochrome P450 2A6) | Ki (Cytochrome P450 2A6)

CCOC(=O)c1ccc(N)cc1 [BENZOCAINE]
Not Active: IC50 [1] | IC50 (Carbonic anhydrase 2) | IC50 [2] | Ki [2] | IC50 (Cannabinoid receptor 1) | IC50 (Acetylcholinesterase) | IC50 [3] | IC50 (Cytochrome P450 2C9) | Ki (Cytochrome P450 2C9) | IC50 [4] | IC50 (Leukotriene C4 synthase) | IC50 (Adenosine receptor A3) | IC50 [5] | Ki [5] | IC50 (Substance-K receptor) | IC50 (Cytochrome P450 2A6) | Ki (Cytochrome P450 2A6)

OCc1ccccc1 [BENZYL ALCOHOL]
Not Active: IC50 [1] | IC50 (Carbonic anhydrase 2) | IC50 [2] | Ki [2] | IC50 (Cannabinoid receptor 1) | IC50 (Acetylcholinesterase) | IC50 [3] | IC50 (Cytochrome P450 2C9) | Ki (Cytochrome P450 2C9) | IC50 [4] | IC50 (Leukotriene C4 synthase) | IC50 (Adenosine receptor A3) | IC50 [5] | Ki [5] | IC50 (Substance-K receptor) | IC50 (Cytochrome P450 2A6) | Ki (Cytochrome P450 2A6)

CC(C)(Oc1ccc(CCNC(=O)c2ccc(Cl)cc2)cc1)C(=O)O [BEZAFIBRATE]
Not Active: IC50 [1] | IC50 (Carbonic anhydrase 2) | IC50 [2] | Ki [2] | IC50 (Cannabinoid receptor 1) | IC50 (Acetylcholinesterase) | IC50 [3] | IC50 (Cytochrome P450 2C9) | Ki (Cytochrome P450 2C9) | IC50 [4] | IC50 (Leukotriene C4 synthase) | IC50 (Adenosine receptor A3) | IC50 [5] | Ki [5] | IC50 (Substance-K receptor) | IC50 (Cytochrome P450 2A6) | Ki (Cytochrome P450 2A6)
